Measurements from patent US9241486B2, “Combination and methods for controlling turfgrass pests” (Bayer CropScience LP, priority 2012, dated 2016).

What was measured:
Type in all cases: in vivo
[1] = system: Southern Chinch Bug (Blissus insularis); test: Field plot trial on St. Augustine grass infested with Southern Chinch Bug, number of live bugs (Example 1); conditions: for Number of Chinch bugs 0 Days After Application / Number of Chinch bugs 4 Days After Application / Number of chinch bugs 7 Days After Application / Number of chinch bugs 18 Days After Application: spray, 40 gallons water per acre, spirotetramat 111 g/ha, azadirachtin 222 g/ha, imidacloprid + azadirachtin 111 + 222 g/ha; for Control of Southern chinch bugs (in words): Example 1, summary of Table 1
Method: Plots approximately 6 feet by 10 feet with three replicates and planted with St. Augustine grass are infested with the Southern Chinch Bug (Blissus insularis). Using a sprayer (research back pack sprayers), Spirotetramat (MOVENTO 240 SC) on its own, azadirachtin (AZATIN XL) on its own, and a mixture of imidacloprid (MERIT 240 SC) and azadirachtin, are applied at the application rates specified. The water application rate is 40 gallons per acre. The evaluation is performed 0 days, 4 days, 7 days, and 18 days after the treatment by determining the number of live Southern Chinch Bugs.

[2] = system: Southern Chinch Bug (Blissus insularis); test: Field plot trial on St. Augustine grass infected with Southern chinch bug, number of chinch bugs (Example 2); conditions: for Number of chinch bugs at 0 Days / Number of chinch bugs at 5 days / Number of chinch bugs at 13 days / Number of chinch bugs at 29 days / Number of chinch bugs at 41 days / Number of chinch bugs at 58 days: Allectus 1083 g ai/ha total, imidacloprid 448.8 g ai/ha, spirotetramat 175.8 g ai/ha, mixture 175.8 + 448.8 g ai/ha; for Number of chinch bugs at 5 days: 5 days after treatment; for Number of chinch bugs at 13 days: 13 days after treatment; for Number of chinch bugs at 29 days: 29 days after treatment; for Number of chinch bugs at 41 days: 41 days after treatment; for Number of chinch bugs at 58 days: 58 days after treatment; for Control of Southern chinch bugs (in words): Example 2, summary of Table 2, up to 58 days after treatment
From the text: (§1) Plots approximately 30 ft by 10 ft with 3 replicates and planted with St. Augustine grass are infected with Southern chinch bug (Blissus insularis). Using a pneumatic sprayer, a mixture of the spirotetramat (MOVENTO 240 SC) and imidacloprid (MERIT 240 SC) is applied in comparision to the spirotetramat (MOVENTO 240 SC) on its own, the imidacloprid (MERIT 240 SC) on its own, and the gold standard Pyrethrin treatment ALLECTUS™ (imidacloprid+bifenthrin), at the application rates specified. The water application rate is 40 gallons per acre. The evaluation is performed 0 days, 5 days, 13 days, 29 days, 41 days, and 58 days after the treatment by determining the number of chinch bugs and the chlorophyll content of the grass. The higher the chlorophyll content of the grass, the greener and lusher the grass is.

St. Augustine grass = test: Chlorophyll content of St. Augustine grass infected with Southern chinch bug (Example 2); conditions: Allectus 1083 g ai/ha total, imidacloprid 448.8 g ai/ha, spirotetramat 175.8 g ai/ha, mixture 175.8 + 448.8 g ai/ha; for Chlorophyll Content 5 days: 5 days after treatment; for Chlorophyll Content 13 days: 13 days after treatment; for Chlorophyll Content 41 days: 41 days after treatment; for Chlorophyll Content 58 days: 58 days after treatment
From the text: as §1

C/C=C(\C)C(=O)O[C@H]1C[C@@H](OC(C)=O)[C@@]2(C(=O)OC)CO[C@H]3[C@@H](O)[C@@](C)([C@]45O[C@@]4(C)[C@H]4C[C@@H]5O[C@@H]5OC=C[C@@]54O)[C@H]4[C@]1(CO[C@]4(O)C(=O)OC)[C@@H]32 [Azadirachtin, azadirachtin]
Number of Chinch bugs 0 Days After Application [1]: 12 | Number of Chinch bugs 4 Days After Application [1]: 15 | Number of chinch bugs 7 Days After Application [1]: 5 | Number of chinch bugs 18 Days After Application [1]: 11

O=[N+]([O-])/N=C1\NCCN1Cc1ccc(Cl)nc1 [Imidacloprid, imidacloprid]
Control of Southern chinch bugs (in words) [1]: none of the compounds provided good control | Number of chinch bugs at 0 Days [2]: 50 | Number of chinch bugs at 5 days [2]: 19 | Number of chinch bugs at 13 days [2]: 41 | Number of chinch bugs at 29 days [2]: 30 | Number of chinch bugs at 41 days [2]: 65 | Number of chinch bugs at 58 days [2]: 9 | Control of Southern chinch bugs (in words) [2]: neither spirotetramat or imidacloprid alone provided good control | Chlorophyll Content 5 days (St. Augustine grass): 2.733 | Chlorophyll Content 13 days (St. Augustine grass): 3.215 | Chlorophyll Content 41 days (St. Augustine grass): 3.185 | Chlorophyll Content 58 days (St. Augustine grass): 3.250

CCOC(=O)OC1=C(c2cc(C)ccc2C)C(=O)N[C@]12CC[C@@H](OC)CC2 [Spirotetramat]
Number of Chinch bugs 0 Days After Application [1]: 6 | Number of Chinch bugs 4 Days After Application [1]: 12 | Number of chinch bugs 7 Days After Application [1]: 6 | Number of chinch bugs 18 Days After Application [1]: 10 | Control of Southern chinch bugs (in words) [1]: none of the compounds provided good control | Number of chinch bugs at 0 Days [2]: 50 | Number of chinch bugs at 5 days [2]: 45 | Number of chinch bugs at 13 days [2]: 73 | Number of chinch bugs at 29 days [2]: 45 | Number of chinch bugs at 41 days [2]: 83 | Number of chinch bugs at 58 days [2]: 26 | Control of Southern chinch bugs (in words) [2]: neither spirotetramat or imidacloprid alone provided good control | Chlorophyll Content 5 days (St. Augustine grass): 3.338 | Chlorophyll Content 13 days (St. Augustine grass): 3.250 | Chlorophyll Content 41 days (St. Augustine grass): 2.292 | Chlorophyll Content 58 days (St. Augustine grass): 2.149
